According to patent publication US11964052B2, “Lipid compounds and lipid nanoparticle compositions” (SUZHOU ABOGEN BIOSCIENCES CO., LTD., priority 2021, dated 2024):

Experiments:
Format in all cases: physicochemical
[1] = Encapsulation efficiency of lipid nanoparticles, Quant-it Ribogreen RNA quantification assay; conditions: LNP with mRNA
Method: (§1) Briefly, a cationic lipid provided herein, DSPC, cholesterol, and PEG-lipid were solubilized in ethanol at a molar ratio of 50:10:38.5:1.5, and mRNA were diluted in 10 to 50 mM citrate buffer, pH=4. The LNPs were prepared at a total lipid to mRNA weight ratio of approximately 10:1 to 30:1 by mixing the ethanolic lipid solution with the aqueous mRNA solution at a volume ratio of 1:3 using a microfluidic apparatus, total flow rate ranging from 9-30 mL/min. Ethanol were thereby removed and replaced by DPBS using dialysis. Finally, the lipid nanoparticles were filtered through a 0.2 μm sterile filter.
(§2) Lipid nanoparticle size were determined by dynamic light scattering using a Malvern Zetasizer Nano ZS (Malvern UK) using a 173° backscatter detection mode. The encapsulation efficiency of lipid nanoparticles were determined using a Quant-it Ribogreen RNA quantification assay kit (Thermo Fisher Scientific, UK) according to the manufacturer's instructions.

[2] = Apparent pKa of LNP formulations, TNS fluorescence assay; conditions: LNP cationic lipid/DSPC/cholesterol/DMG-PEG 50/10/38.5/1.5 mol %, pH 3 to 9
Method: As reported in literature, the apparent pKa of LNP formulations correlates with the delivery efficiency of LNPs for nucleic acids in vivo. The apparent pKa of each formulation was determined using an assay based on fluorescence of 2-(p-toluidino)-6-napthalene sulfonic acid (TNS). LNP formulations comprising of cationic lipid/DSPC/cholesterol/DMG-PEG (50/10/38.5/1.5 mol %) in PBS were prepared as described above. TNS was prepared as a 300 uM stock solution in distilled water. LNP formulations were diluted to 0.1 mg/ml total lipid in 3 mL of buffered solutions containing 50 mM sodium citrate, 50 mM sodium phosphate, 50 mM sodium borate, and 30 mM sodium chloride where the pH ranged from 3 to 9. An aliquot of the TNS solution was added to give a final concentration of 0.1 mg/ml and following vortex mixing fluorescence intensity was measured at room temperature in a Molecular Devices Spectramax iD3 spectrometer using excitation and mission wavelengths of 325 nm and 435 nm. A sigmoidal best fit analysis was applied to the fluorescence data and the pKa value was measured as the pH giving rise to half-maximal fluorescent intensity.

[3] = Lipid nanoparticle size and polydispersity by dynamic light scattering (Malvern Zetasizer Nano ZS); conditions: LNP of cationic lipid/DSPC/cholesterol/PEG-lipid 50:10:38.5:1.5 with mRNA
Method: as §1, §2

Encapsulation Efficiency [1] [%] | Apparant Pka [2] | polydispersity [3] | size (nm) [3] [nm] | SMILES
91.83 | 6.444 | 0.116 | 130.6 | CCCCCCCCC(CCCCCCCC)CC(=O)OCC(CCCCN(CC)CCN(CCO)C1CCC1)COC(=O)CC(CCCCCCCC)CCCCCCCC [Compound 67]
89.42 | 6.22 | 0.084 | 55.01 | CCCCCCCCC(CCCCCC)CC(=O)OCC(CCCCN(CCO)C1CCCCC1)COC(=O)CC(CCCCCC)CCCCCCCC (stereo not shown) [Compound 68]
91.81 | 6.789 | 0.013 | 110.30 | CCCCCCCCC(CCCCCC)CC(=O)OCC(CCCCN(CCN(CC)CCO)C1CCC1)COC(=O)CC(CCCCCC)CCCCCCCC (stereo not shown) [Compound 69]
93.32 | 6.351 | 0.049 | 78.45 | CCCCCCCCC(CCCCCCCC)COC(=O)CCOCC(CN(C)CCN(CCO)C1CC1)OCCC(=O)OCC(CCCCCCCC)CCCCCCCC (stereo not shown) [Compound 70]
94.62 | 6.727 | 0.077 | 76.45 | CCCCCCCCC(CCCCCCCC)COC(=O)CCOCC(CN(C)CCN(CCO)C1CCCC1)OCCC(=O)OCC(CCCCCCCC)CCCCCCCC (stereo not shown) [Compound 71]
94.69 | 6.616 | 0.088 | 76.26 | CCCCCCCCC(CCCCCCCC)COC(=O)CCOCC(CN(C)CCN(CCO)C1CCCCCC1)OCCC(=O)OCC(CCCCCCCC)CCCCCCCC (stereo not shown) [Compound 73]
93.97 | 6.539 | 0.031 | 101.00 | CCCCCCCCC(CCCCCCCC)COC(=O)CCOCC(CN(C)CCN(CCO)C1CCCCCCC1)OCCC(=O)OCC(CCCCCCCC)CCCCCCCC (stereo not shown) [Compound 74]
89.92 | 6.439 | 0.046 | 56.88 | CCCCCCCCC(CCCCCC)CC(=O)OCC(CCCCN(CC=C(C)C)CCO)COC(=O)CC(CCCCCC)CCCCCCCC (stereo not shown) [Compound 77]
93.77 | 6.166 | 0.017 | 159.72 | CCCCCCCCC(CCCCCC)CC(=O)OCC(CCCCN(CC=C(C)C)CCN(CCO)C1CCC1)COC(=O)CC(CCCCCC)CCCCCCCC (stereo not shown) [Compound 78]
91.29 | 5.927 | 0.01 | 103.64 | CCCCCCCCC(CCCCCC)CC(=O)OCC(CCCCN(CCN(CCO)C1CCC1)C1CCC1)COC(=O)CC(CCCCCC)CCCCCCCC (stereo not shown) [Compound 79]
92.20 | 6.063 | 0.027 | 98.95 | CCCCCCCCC(CCCCCC)CC(=O)OCC(CCCCN(CCN(CCC)CCO)C1CCC1)COC(=O)CC(CCCCCC)CCCCCCCC (stereo not shown) [Compound 80]
88.28 | 6.79 | 0.023 | 72.78 | CCCCCCCCCCC(=O)OCC(CCCCN(CCO)C1CCC1)COC(=O)CC(CCCCCC)CCCCCCCC (stereo not shown) [Compound 81]
92.38 | 6.621 | 0.079 | 84.46 | CCCCCCCCCCC(=O)OCC(CCCCN(CCN(CCO)C1CCC1)C1CCC1)COC(=O)CC(CCCCCC)CCCCCCCC (stereo not shown) [Compound 82]
92.39 | 6.182 | 0.019 | 94.04 | CCCCCCCCC(CCCCCC)CC(=O)OCC(CCCCN(CCCC)CCN(CCO)C1CCC1)COC(=O)CC(CCCCCC)CCCCCCCC (stereo not shown) [Compound 83]
93.44 | 6.785 | 0.01 | 83.05 | CCCCCCCCCCC(=O)OCC(CCCCN(CCO)C1CCCC1)COC(=O)CC(CCCCCC)CCCCCCCC (stereo not shown) [Compound 84]
92.17 | 6.438 | 0.066 | 74.14 | CCCCCCCCCCC(=O)OCC(CCCCN(CCO)C1CCCCC1)COC(=O)CC(CCCCCC)CCCCCCCC (stereo not shown) [Compound 85]

Encapsulation Efficiency [1] [%] | Apparant Pka [2] | polydispersity [3] | size (nm) [3] [nm] | SMILES
92.47 | 6.372 | 0.044 | 64.08 | CCCCCCCCCCCCCCCC(=O)OCC(CCCCN(CCO)C1CCCCCC1)COC(=O)CC(CCCCCC)CCCCCCCC (stereo not shown) [Compound 87]
92.91 | 6.309 | 0.063 | 59.54 | CCCCCCCCCCCCCCCC(=O)OCC(CCCCN(CCO)C1CCCCCCC1)COC(=O)CC(CCCCCC)CCCCCCCC (stereo not shown) [Compound 88]
92.56 | 6.926 | 0.04 | 69.36 | CCCCC/C=C\C/C=C\CCCCCCCC(=O)OCC(CCCCN(CCO)C1CCC1)COC(=O)CC(CCCCCC)CCCCCCCC (stereo not shown) [Compound 89]
93.02 | 7.024 | 0.043 | 70.38 | CCCCC/C=C\C/C=C\CCCCCCCC(=O)OCC(CCCCN(CCO)C1CCCC1)COC(=O)CC(CCCCCC)CCCCCCCC (stereo not shown) [Compound 90]
92.11 | 6.608 | 0.111 | 63.89 | CCCCC/C=C\C/C=C\CCCCCCCC(=O)OCC(CCCCN(CCO)C1CCCCCC1)COC(=O)CC(CCCCCC)CCCCCCCC (stereo not shown) [Compound 91]
85.30 | 6.377 | 0.111 | 63.32 | CCCCCCCCCCC(=O)OCC(CCCCN(CCO)C1CCCCCCC1)COC(=O)CC(CCCCCC)CCCCCCCC (stereo not shown) [Compound 93]
93.93 | 6.793 | 0.04 | 77.15 | CCCCCCCCCCC(=O)OCC(CCCCN(CC=C(C)C)CCO)COC(=O)CC(CCCCCC)CCCCCCCC (stereo not shown) [Compound 94]
93.58 | 6.997 | 0.01 | 77.16 | CCCCCCCCCCCCCCCC(=O)OCC(CCCCN(CCO)C1CCC1)COC(=O)CC(CCCCCC)CCCCCCCC (stereo not shown) [Compound 98]
94.14 | 7.059 | 0.025 | 77.25 | CCCCCCCCCCCCCCCC(=O)OCC(CCCCN(CCO)C1CCCC1)COC(=O)CC(CCCCCC)CCCCCCCC (stereo not shown) [Compound 99]
91.24 | 6.666 | 0.055 | 64.54 | CCCCC/C=C\C/C=C\CCCCCCCC(=O)OCC(CCCCN(CCO)C1CCCCC1)COC(=O)CC(CCCCCC)CCCCCCCC (stereo not shown) [Compound 100]
92.79 | 6.488 | 0.111 | 59.51 | CCCCC/C=C\C/C=C\CCCCCCCC(=O)OCC(CCCCN(CCO)C1CCCCCCC1)COC(=O)CC(CCCCCC)CCCCCCCC (stereo not shown) [Compound 101]
93.17 | 6.035 | 0.046 | 65.31 | CCCCCCCCC(CCCCCC)COC(=O)CCOCC(CN(CCC)CCN(CCO)C1CCCCCC1)OCCC(=O)OCC(CCCCCC)CCCCCCCC (stereo not shown) [Compound 106]
92.59 | 6.204 | 0.011 | 74 | CCCCCCCCC(CCCCCC)CC(=O)OCC(CCCCN(CCN(CCO)CCCC)C1CCC1)COC(=O)CC(CCCCCC)CCCCCCCC (stereo not shown) [Compound 109]
92.71 | 6.147 | 0.038 | 75.71 | CCCCCCCCC(CCCCCC)CC(=O)OCC(CCCCN(CCN(CCO)CCCCC)C1CCC1)COC(=O)CC(CCCCCC)CCCCCCCC (stereo not shown) [Compound 110]
92.54 | 6.072 | 0.048 | 62.77 | CCCCCCCCC(CCCCCC)CC(=O)OCC(CCCCN(CCN(CCO)CCCCCC)C1CCC1)COC(=O)CC(CCCCCC)CCCCCCCC (stereo not shown) [Compound 111]
